Article PMC4965013, “Open Source Drug Discovery with the Malaria Box Compound Collection for Neglected Diseases and Beyond” (PLoS Pathogens, 2016)

Columns and labels:
[1] = system: P. falciparum 3D7 trophozoites; assay: Metabolomic fingerprint profiling LC-MS; assay type: cell-based, Plasmodium falciparum; set-up: UDP-D-glucose / ADP-D-glucose: unit not given here; conditions: for Acetyllysine / N-acetyl-L-ornithine / N-carbamoyl-L-aspartate / NADPH / dAMP / dCMP / dTDP / dTMP / dTTP / dihydroorotate / orotate / DLH / DLS/SDL/SID / PD / PEE / PVNF / 3-phosphoglycerate / ADP-D-glucose / ATP / CDP / D-sedoheptulose-1/7-phosphate / FAD / GMP / NAD+ / NADP+ / Octoluse Bisphosphate / Pyroglutamic acid / UDP-D-glucose / UDP-D-glucuronate / UDP-N-acetyl-glucosamine / UDP / UMP / UTP / a-ketoglutarate / citrate/isocitrate / cytidine / dATP / dGMP/AMP / fumarate / glucose-1/6-phosphate / glycerate / guanine / guanosine / hypoxanthine / indole / inosine / nicotinate / ornithine / phosphoenolpyruvate / pyruvate / ribose-phosphate / sarcosine/alanine / sn-glycerol-3-phosphate / succinate/methylmalonic acid / uridine / xanthosine: S2 Table Metabolomics; for Acetyllysine: metabolite Acetyllysine; for N-acetyl-L-ornithine: metabolite N-acetyl-L-ornithine; for N-carbamoyl-L-aspartate: metabolite N-carbamoyl-L-aspartate; for NADPH: metabolite NADPH; for dAMP: metabolite dAMP; for dCMP: metabolite dCMP; for dTDP: metabolite dTDP; for dTMP: metabolite dTMP; for dTTP: metabolite dTTP; for dihydroorotate: metabolite dihydroorotate; for orotate: metabolite orotate; for DLH: peptide DLH; for DLS/SDL/SID: peptide DLS/SDL/SID; for PD: peptide PD; for PEE: peptide PEE; for PVNF: peptide PVNF; for 3-phosphoglycerate: metabolite 3-phosphoglycerate; for ADP-D-glucose: metabolite ADP-D-glucose; for ATP: metabolite ATP; for CDP: metabolite CDP; for CDP / D-sedoheptulose-1/7-phosphate / GMP / Octoluse Bisphosphate / UDP / UMP / UTP / citrate/isocitrate / dGMP/AMP / fumarate / glucose-1/6-phosphate / glycerate / guanine / guanosine / inosine / pyruvate / sarcosine/alanine / succinate/methylmalonic acid / uridine / xanthosine: change in metabolite level after compound treatment; for D-sedoheptulose-1/7-phosphate: metabolite D-sedoheptulose-1/7-phosphate; for FAD: metabolite FAD; for GMP: metabolite GMP; for NAD+: metabolite NAD+; for NADP+: metabolite NADP+; for Octoluse Bisphosphate: metabolite Octoluse Bisphosphate; for Pyroglutamic acid: metabolite Pyroglutamic acid; for UDP-D-glucose: metabolite UDP-D-glucose; for UDP-D-glucuronate: metabolite UDP-D-glucuronate; for UDP-N-acetyl-glucosamine: metabolite UDP-N-acetyl-glucosamine; for UDP: metabolite UDP; for UMP: metabolite UMP; for UTP: metabolite UTP; for a-ketoglutarate: metabolite a-ketoglutarate; for citrate/isocitrate: metabolite citrate/isocitrate; for cytidine: metabolite cytidine; for dATP: metabolite dATP; for dGMP/AMP: metabolite dGMP/AMP; for fumarate: metabolite fumarate; for glucose-1/6-phosphate: metabolite glucose-1/6-phosphate; for glycerate: metabolite glycerate; for guanine: metabolite guanine; for guanosine: metabolite guanosine; for hypoxanthine: metabolite hypoxanthine; for indole: metabolite indole; for inosine: metabolite inosine; for 2_3-Diphosphoglyceric acid / 4-phosphopantothenate / 6-phospho-D-gluconate / FMN / IMP / Pyrophosphate / Sedoheptoluse bisphosphate / cyclic-AMP / glutathione disulfide / lactate / myo-inositol: metabolite level change after treatment; for nicotinate: metabolite nicotinate; for ornithine: metabolite ornithine; for phosphoenolpyruvate: metabolite phosphoenolpyruvate; for pyruvate: metabolite pyruvate; for ribose-phosphate: metabolite ribose-phosphate; for sarcosine/alanine: metabolite sarcosine/alanine; for sn-glycerol-3-phosphate: metabolite sn-glycerol-3-phosphate; for succinate/methylmalonic acid: metabolite succinate/methylmalonic acid; for uridine: metabolite uridine; for xanthosine: metabolite xanthosine
P. falciparum = assay: EC50 listed in S2 Table Metabolomics (used to set the concentration tested); assay type: cell-based; conditions: Plasmodium falciparum; EC50 used for Factor_XEC50 in metabolomics; read-out: EC50_nM

COc1ccc(Br)cc1C1Nc2ccc3ccccc3c2C2=C1C(=O)CC(c1ccccc1)C2 (stereo not drawn) [MMV020885]
Acetyllysine [1]: -0.2018
N-acetyl-L-ornithine [1]: 0.05879
N-carbamoyl-L-aspartate [1]: 0.2499
NADPH [1]: 0.3881
dAMP [1]: -0.07633
dCMP [1]: -0.1829
dTDP [1]: -0.08159
dTMP [1]: -0.06085
dTTP [1]: 0.08356
dihydroorotate [1]: 0.4211
orotate [1]: -0.07163
DLH [1]: 0.1131
DLS/SDL/SID [1]: 0.0252
PD [1]: -0.01204
PEE [1]: -0.02185
PVNF [1]: 0.06588
3-phosphoglycerate [1]: 0.1773
ADP-D-glucose [1]: 0.1062
ATP [1]: 0.1529
CDP [1]: -0.1573
D-sedoheptulose-1/7-phosphate [1]: -0.3333
FAD [1]: 0.09744
GMP [1]: 0.2606
NAD+ [1]: -0.4069
NADP+ [1]: 0.1167
Octoluse Bisphosphate [1]: 0.1001
Pyroglutamic acid [1]: 0.05012
UDP-D-glucose [1]: 0.09185
UDP-D-glucuronate [1]: 0.09622
UDP-N-acetyl-glucosamine [1]: 0.0596
UDP [1]: -0.2367
UMP [1]: 0.2791
UTP [1]: -0.3268
a-ketoglutarate [1]: 0.1759
citrate/isocitrate [1]: -0.004418
cytidine [1]: -0.005151
dATP [1]: 0.1038
dGMP/AMP [1]: -0.1164
fumarate [1]: 0.1396
glucose-1/6-phosphate [1]: 0.3285
glycerate [1]: 0.153
guanine [1]: 0.03354
guanosine [1]: 0.1241
hypoxanthine [1]: 0.09912
indole [1]: 0.3168
inosine [1]: 0.1551
2_3-Diphosphoglyceric acid [1]: 0.06597
4-phosphopantothenate [1]: 0.04165
6-phospho-D-gluconate [1]: 0.04292
FMN [1]: 0.1362
IMP [1]: 0.02368
Pyrophosphate [1]: 0.2656
Sedoheptoluse bisphosphate [1]: 0.01639
cyclic-AMP [1]: -0.09684
glutathione disulfide [1]: 0.06546
lactate [1]: 0.1283
myo-inositol [1]: 0.176
nicotinate [1]: 0.1246
ornithine [1]: -0.2474
phosphoenolpyruvate [1]: 0.1975
pyruvate [1]: 0.1649
ribose-phosphate [1]: 0.4239
sarcosine/alanine [1]: -0.04603
sn-glycerol-3-phosphate [1]: 0.03018
succinate/methylmalonic acid [1]: 0.08193
uridine [1]: 0.101
xanthosine [1]: 0.04674
EC50 (P. falciparum): 180 nM

COc1ccc2c(=O)cc(C(Cl)(Cl)Cl)oc2c1 [MMV665820]
Acetyllysine [1]: -2.345
N-acetyl-L-ornithine [1]: -3.277
N-carbamoyl-L-aspartate [1]: -3.842
NADPH [1]: -0.2986
dAMP [1]: -0.8398
dCMP [1]: -0.0001746
dTDP [1]: -1.2684
dTMP [1]: -0.5586
dTTP [1]: -2.5615
dihydroorotate [1]: -2.921
orotate [1]: -2.382
DLH [1]: -2.464
DLS/SDL/SID [1]: -1.694
PD [1]: -4.28
PEE [1]: -1.0444
PVNF [1]: -2.464
3-phosphoglycerate [1]: -2.392
ADP-D-glucose [1]: -0.3227
ATP [1]: -1.288
CDP [1]: -0.9038
D-sedoheptulose-1/7-phosphate [1]: 0.5405
FAD [1]: -1.407
GMP [1]: -1.717
NAD+ [1]: -0.3778
NADP+ [1]: -0.008784
Octoluse Bisphosphate [1]: -4.199
Pyroglutamic acid [1]: 0.4738
UDP-D-glucose [1]: -0.2217
UDP-D-glucuronate [1]: -0.02834
UDP-N-acetyl-glucosamine [1]: -0.2815
UDP [1]: -0.477
UMP [1]: -2.629
UTP [1]: -1.869
a-ketoglutarate [1]: 0.2276
citrate/isocitrate [1]: -0.6427
cytidine [1]: -0.5777
dATP [1]: -2.2274
dGMP/AMP [1]: 0.08346
fumarate [1]: -2.544
glucose-1/6-phosphate [1]: -2.012
glycerate [1]: -1.622
guanine [1]: -1.809
guanosine [1]: -1.332
hypoxanthine [1]: 0.4621
indole [1]: 0.006213
inosine [1]: -2.706
2_3-Diphosphoglyceric acid [1]: -2.758
4-phosphopantothenate [1]: -2.584
6-phospho-D-gluconate [1]: -2.402
FMN [1]: -1.9
IMP [1]: -1.4619
Pyrophosphate [1]: -2.687
Sedoheptoluse bisphosphate [1]: -3.03
cyclic-AMP [1]: -3.2218
glutathione disulfide [1]: -1.807
lactate [1]: -6.313
myo-inositol [1]: -0.0001746
nicotinate [1]: -0.2855
ornithine [1]: 0.1501
phosphoenolpyruvate [1]: -1.494
pyruvate [1]: -2.492
ribose-phosphate [1]: -0.0001746
sarcosine/alanine [1]: -2.81
sn-glycerol-3-phosphate [1]: -1.932
succinate/methylmalonic acid [1]: -1.8645
uridine [1]: -1.942
xanthosine [1]: -0.05367
EC50 (P. falciparum): 520 nM

CCOC(=O)c1cnc2ccc(CC)cc2c1O [MMV007116]
Acetyllysine [1]: -0.1012
N-acetyl-L-ornithine [1]: 0.0981
N-carbamoyl-L-aspartate [1]: 2.971
NADPH [1]: -0.5029
dAMP [1]: -0.4219
dCMP [1]: 0.4317
dTDP [1]: -1.171
dTMP [1]: -0.8513
dTTP [1]: -0.7029
dihydroorotate [1]: 3.788
orotate [1]: -1.509
DLH [1]: 0.2963
DLS/SDL/SID [1]: 0.1623
PD [1]: 0.3262
PEE [1]: 0.1615
PVNF [1]: 0.2601
3-phosphoglycerate [1]: -0.1794
ADP-D-glucose [1]: 0.1742
ATP [1]: 0.4661
CDP [1]: -0.7049
D-sedoheptulose-1/7-phosphate [1]: -0.06275
FAD [1]: 0.2601
GMP [1]: -0.15
NAD+ [1]: 0.1229
NADP+ [1]: 0.2138
Octoluse Bisphosphate [1]: 0.1604
Pyroglutamic acid [1]: 0.5147
UDP-D-glucose [1]: 0.04103
UDP-D-glucuronate [1]: 0.1753
UDP-N-acetyl-glucosamine [1]: -0.1032
UDP [1]: -1.173
UMP [1]: -0.7684
UTP [1]: -0.9344
a-ketoglutarate [1]: -0.7057
citrate/isocitrate [1]: -0.7167
cytidine [1]: 0.3209
dATP [1]: 0.325
dGMP/AMP [1]: -0.3675
fumarate [1]: 0.4728
glucose-1/6-phosphate [1]: 0.07021
glycerate [1]: -0.09904
guanine [1]: -0.05466
guanosine [1]: -0.14
hypoxanthine [1]: -0.2065
indole [1]: -0.3037
inosine [1]: -0.2408
2_3-Diphosphoglyceric acid [1]: 0.3408
4-phosphopantothenate [1]: -0.2638
6-phospho-D-gluconate [1]: 0.07683
FMN [1]: -0.08712
IMP [1]: -0.2111
Pyrophosphate [1]: 0.42
Sedoheptoluse bisphosphate [1]: 0.05124
cyclic-AMP [1]: 0.01532
glutathione disulfide [1]: 0.02122
lactate [1]: -0.5604
myo-inositol [1]: -0.5893
nicotinate [1]: -0.6598
ornithine [1]: -0.07172
phosphoenolpyruvate [1]: -0.09558
pyruvate [1]: -0.6031
ribose-phosphate [1]: 0.2426
sarcosine/alanine [1]: -0.04206
sn-glycerol-3-phosphate [1]: 0.1096
succinate/methylmalonic acid [1]: 0.07837
uridine [1]: -1.178
xanthosine [1]: 0.04101
EC50 (P. falciparum): 351 nM
